Laboratory results taken from ChEMBL document CHEMBL1201862, “PubChem BioAssay data set” (2004).
Blank lines part the entries; values can stand above or below the compound they belong to. Calls of active or inactive are those of the source. Square brackets hold non-standard residues; d marks the D form. Peptide text beside a SMILES is read from it. * marks the point of attachment. Hyp = O=C(O)[CH]1C[CH](O)CN1; Cbz = O=C(OCc1ccccc1)*; OBn = c1ccc(CO*)cc1

Assays:
[1] = target: T1, Caspase-3 (Homo sapiens, UniProt P42574); type: functional;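 further: Dose-response selectivity test against caspase-3 for candidate inhibitors of sentrin-specific proteases (SENPs)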
T1 sequence (P42574 whole entry): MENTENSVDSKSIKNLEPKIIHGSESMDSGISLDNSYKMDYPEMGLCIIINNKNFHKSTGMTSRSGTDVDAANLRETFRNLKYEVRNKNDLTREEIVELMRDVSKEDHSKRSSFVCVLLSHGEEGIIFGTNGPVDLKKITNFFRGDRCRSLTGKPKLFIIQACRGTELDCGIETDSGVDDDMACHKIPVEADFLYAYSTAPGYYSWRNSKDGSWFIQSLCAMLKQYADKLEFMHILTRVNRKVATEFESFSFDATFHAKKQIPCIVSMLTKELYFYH

[2] = target: T2, Sentrin-specific protease 6 (Homo sapiens, UniProt Q9GZR1); type: functional;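 further: Luminescence-based dose-response confirmatory assay of SENP6 inhibition, following up an ultra-high-throughput screen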
T2 sequence (Q9GZR1 whole entry): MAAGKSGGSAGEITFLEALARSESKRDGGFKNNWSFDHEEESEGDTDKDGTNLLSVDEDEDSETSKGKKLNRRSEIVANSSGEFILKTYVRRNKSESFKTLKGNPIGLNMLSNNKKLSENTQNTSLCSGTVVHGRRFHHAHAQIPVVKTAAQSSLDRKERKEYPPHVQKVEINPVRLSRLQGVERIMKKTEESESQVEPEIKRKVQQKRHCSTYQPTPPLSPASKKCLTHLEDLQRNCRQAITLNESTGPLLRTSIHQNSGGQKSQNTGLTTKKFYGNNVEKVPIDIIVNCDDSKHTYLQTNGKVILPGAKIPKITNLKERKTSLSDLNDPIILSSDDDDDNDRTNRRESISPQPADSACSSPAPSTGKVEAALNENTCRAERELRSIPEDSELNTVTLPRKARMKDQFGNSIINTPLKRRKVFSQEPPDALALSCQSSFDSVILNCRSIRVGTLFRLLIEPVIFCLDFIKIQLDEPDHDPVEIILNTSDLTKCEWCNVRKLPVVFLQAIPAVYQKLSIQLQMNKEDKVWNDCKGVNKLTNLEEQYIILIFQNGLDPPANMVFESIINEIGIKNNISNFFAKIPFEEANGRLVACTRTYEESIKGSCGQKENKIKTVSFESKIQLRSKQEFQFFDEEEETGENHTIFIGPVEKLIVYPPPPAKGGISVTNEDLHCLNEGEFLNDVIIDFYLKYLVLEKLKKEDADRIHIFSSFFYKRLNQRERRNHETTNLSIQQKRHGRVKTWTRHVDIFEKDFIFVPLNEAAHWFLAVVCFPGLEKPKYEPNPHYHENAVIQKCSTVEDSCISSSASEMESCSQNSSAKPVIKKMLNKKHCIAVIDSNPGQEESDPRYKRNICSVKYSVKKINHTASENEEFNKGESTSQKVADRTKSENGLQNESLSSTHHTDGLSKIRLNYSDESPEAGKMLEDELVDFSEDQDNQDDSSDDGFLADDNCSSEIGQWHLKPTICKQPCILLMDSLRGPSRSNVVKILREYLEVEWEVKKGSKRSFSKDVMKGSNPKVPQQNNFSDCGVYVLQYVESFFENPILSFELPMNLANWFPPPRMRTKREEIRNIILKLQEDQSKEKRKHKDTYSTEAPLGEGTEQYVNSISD

[3] = target: T3, Sentrin-specific protease 7 (Homo sapiens, UniProt Q9BQF6); type: functional;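 further: Luminescence-based dose-response confirmation of ultra-high-throughput screening hits, measuring inhibition of SENP7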
T3 sequence (Q9BQF6 whole entry): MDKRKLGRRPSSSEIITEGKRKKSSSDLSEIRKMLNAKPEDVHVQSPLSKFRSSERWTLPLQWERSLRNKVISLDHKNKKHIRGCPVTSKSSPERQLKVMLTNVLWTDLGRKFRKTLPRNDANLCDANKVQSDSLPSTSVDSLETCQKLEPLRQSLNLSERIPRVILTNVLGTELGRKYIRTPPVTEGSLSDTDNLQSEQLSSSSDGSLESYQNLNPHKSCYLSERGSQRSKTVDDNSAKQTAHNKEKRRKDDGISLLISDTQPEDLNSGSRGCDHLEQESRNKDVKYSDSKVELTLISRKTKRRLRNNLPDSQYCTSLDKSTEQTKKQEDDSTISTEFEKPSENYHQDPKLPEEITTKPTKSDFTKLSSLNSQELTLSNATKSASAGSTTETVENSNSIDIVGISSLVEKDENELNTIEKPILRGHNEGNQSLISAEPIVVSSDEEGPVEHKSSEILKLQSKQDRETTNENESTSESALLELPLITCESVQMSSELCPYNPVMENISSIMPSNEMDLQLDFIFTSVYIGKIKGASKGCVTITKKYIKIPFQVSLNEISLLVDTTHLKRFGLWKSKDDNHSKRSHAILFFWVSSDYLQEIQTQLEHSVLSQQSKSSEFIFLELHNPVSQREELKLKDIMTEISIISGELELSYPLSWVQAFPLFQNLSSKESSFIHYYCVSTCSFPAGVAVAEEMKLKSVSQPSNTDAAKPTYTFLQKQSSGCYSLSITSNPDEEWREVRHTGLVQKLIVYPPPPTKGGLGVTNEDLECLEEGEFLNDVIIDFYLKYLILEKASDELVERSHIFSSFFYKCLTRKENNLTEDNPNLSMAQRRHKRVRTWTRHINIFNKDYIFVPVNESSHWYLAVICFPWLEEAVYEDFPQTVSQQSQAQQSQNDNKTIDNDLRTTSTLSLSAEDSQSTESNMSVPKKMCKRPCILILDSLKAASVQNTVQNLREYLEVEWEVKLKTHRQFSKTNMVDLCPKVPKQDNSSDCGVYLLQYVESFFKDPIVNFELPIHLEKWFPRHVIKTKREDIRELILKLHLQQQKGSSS

[4] = target: T4, Sentrin-specific protease 8 (Homo sapiens, UniProt Q96LD8); type: functional;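 further: luminescence read-out of SENP8 inhibition, dose-response confirmation following an ultra-high-throughput screen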
T4 sequence (Q96LD8 whole entry): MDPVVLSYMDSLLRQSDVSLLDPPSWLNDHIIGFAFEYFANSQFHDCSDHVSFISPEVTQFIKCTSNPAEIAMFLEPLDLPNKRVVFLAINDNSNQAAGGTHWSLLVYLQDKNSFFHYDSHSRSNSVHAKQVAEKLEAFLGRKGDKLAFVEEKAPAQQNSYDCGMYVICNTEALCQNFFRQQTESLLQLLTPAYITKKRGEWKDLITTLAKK

[5] = system: Vero; test: Vero cell cytotoxicity, cytotoxicity control for flavivirus capping enzyme inhibitors (AID 588742); type: functional; settings: Chlorocebus sabaeus
[6] = system: H9c2; test: cells; type: functional, cell-based; settings: Rattus norvegicus, H9c2, Myocardium;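 further: confirmatory concentration-response retest of ultra-high-throughput screening hits for modulation of myocardial damage; cell death induced by hydrogen peroxide oxidative stress; compound pretreatment for 60 min then peroxide exposure for 2 h; potency is for protecting the cells against peroxide damage rather than for killing them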
[7] = system: HEK293; test: inhibitors of LMP1-driven NF-kB reporter, dose response, cell-based, HEK293, luciferase, cherry-pick (AID 588343); type: functional; settings: Homo sapiens

IC50 [1]: 35.2 µM (active) | IC50 [2]: 56.1 µM (active) | IC50 [3]: 24.6 µM (active)
SMILES: Cc1cc(C=C2C(=O)c3ccccc3C2=O)c(C)n1C
IC50 [4]: 74.6 µM (active)

SMILES: Oc1ccc2oc3c(c2c1/C=N/Cc1ccncc1)CCCC3
CC50 [5]: > 40 µM (active) | IC50 [6]: > 79 µM (inactive)

SMILES: CCOCCCn1c(=S)[nH]c2ncccc2c1=O
AC50 [7]: 135 µM (active)

SMILES: CC(NC(=O)CNC(=O)OCc1ccccc1)C(=O)N1CC(O)CC1C(=O)OCc1ccccc1 (stereo not drawn) (Cbz-Gly-Ala-[Hyp]-OBn; configuration not given here)
AC50 [7]: 273 µM (active)
